Laboratory results reported in patent US11952353B2, “STAT3 transcription factor inhibitors and methods of using the same” (The Regents of the University of Colorado, A Body Corporate, priority 2018, dated 2024).

Experiments:
SH2 domain of STAT3 [1] = target: T1, SH2 domain of STAT3 (Homo sapiens, UniProt P40763); assay: Fluorescence polarization (FP) assay; format: binding; settings: 25 μM
T1 construct: 100 nM of full length GST-tagged human STAT3 protein (Abcam); purchased Abcam
Experimental: FP assay was conducted as previously reported (Steffanie L. Furtek, S. L., et al., Evaluation of quantitative assays for the identification of direct signal transducer and activator of transcription 3 (STAT3) inhibitors (November 2016) Oncotarget 7(47): 77998-78008). Briefly, assay buffer (10 mM HEPES, pH 7.5, 50 mM NaCl, 1 mM EDTA, 2 mM DTT, and 0.01% Triton-X100), 100 nM of full length GST-tagged human STAT3 protein (Abcam), and varying concentrations of compounds were incubated for 1 hour at room temperature with mild agitation in 96-well half area black plates (Corning). Fluorescent peptide 5-FAM-G(pTyr)LPQTV-CONH2 (Genscript) was added to each assay well at a concentration of 10 nM. Final well volumes were 30 μL. Following incubation with fluorescent peptide for 30 minutes at room temperature with mild agitation, plates were examined using FP Fluorescein Dual module with excitation filter FITC FP 480 and emission filter FITC FP P-pol535 and S-pol535. Data was expressed as percent control using the equation % C=(mPdrug−mPfree)/(mPSTAT3−mPfree)*100 where mP is the value for FP measurement.

[2] = target: T2, full-length, GST-tagged human STAT3 protein (Homo sapiens, UniProt P40763); assay: Recombinant STAT3 ELISA (STAT3/DNA binding); format: biochemical; settings: 2 μM; for mean value, % of STAT3 only control: 1 hour incubation
T2 construct: full-length, GST-tagged human STAT3 protein and various concentrations of compounds
Experimental: Measurement of STAT3 binding to DNA was performed using a TransAM STAT3 ELISA kit (Active Motif) and according to the previously used protocol. Briefly, full-length, GST-tagged human STAT3 protein and various concentrations of compounds to be evaluated or niclosamide were incubated in Complete Lysis Buffer at a final volume of 20 μL containing 0.1 μg recombinant protein for 1 hour with mild agitation. Following incubation with STAT3 inhibitors, samples were added to corresponding ELISA wells with 30 μL of Complete Binding Buffer and inhibition of STAT3 protein binding to the DNA consensus sequence was determined. Data was reported as percent of control.

HeLa cells [3] = assay: Caspase 3/7 assay (apoptosis); format: cell-based; settings: 24 and 48 hours
Experimental: The effect of STAT3 inhibitor on caspase activity was evaluated using a Caspase-Glo 3/7 kit (Promega) according to product directions. Briefly, HeLa cells were plated in white-walled, clear bottom 96-well plates at a density of 5,000 cells/well in 100 μL of media and were incubated for 24 hours. Media was then aspirated and replaced with 100 μL of media containing 1 μM or 10 μM of STAT3 inhibitor. Cells were exposed to compounds for 24 and 48 hours, following which plates were allowed to equilibrate to room temperature. Reconstituted caspase reagent was added to sample wells in a 1:1 ratio, mixed, and incubated in the dark for 1 hour. Luminescence was read using a microplate reader.

HeLa cells [4] = assay: MTT cell viability assay; format: cell-based; settings: 24 h; for EC50: Homo sapiens
Experimental: HeLa cells were plated in 96-well plates at a density of 5,000 cells/well in 100 μL of media and were incubated for 24 hours. Media was then aspirated and replaced with 100 μL of media containing various concentrations of compounds ranging from 500 μM-0.0019 μM. Cells were exposed to compounds for 24 hours, following which the media was aspirated and 50 μL MTT solution diluted in media was added to each well at a final concentration of 1 mg/mL. MTT was exposed to cells for 4 hours, aspirated, and then 100 μL of DMSO was added to each well. Plates were agitated for 10 minutes prior to reading absorbance at 540 nm in a microplate reader. Data was normalized and reported as percent of control.

STAT3 = target: T3, STAT3 (Homo sapiens, UniProt P40763); assay: Cell-based STAT3 DNA-binding ELISA; settings: HeLa; for reduction of STAT3/DNA-binding: 24 h, 1 μM; for EC50: 24 h dose response
T3 construct: endogenous in cells; host or cells: HeLa
Experimental: Nuclear extracts were prepared using a nuclear extraction kit (Signosis) according to product directions. Briefly, 100 mm dishes of cells were washed with 1×PBS and then 1 mL of 1× Buffer I was added and dishes were rocked on ice for 10 minutes. Cells were released from the dish using a sterile scraper and centrifuged at 1200 rpm for 5 minutes at 4° C. The supernatant was discarded and the pellets were resuspended in 1× Buffer II and shaken on ice for 2 hours. Samples were centrifuged at 1200 rpm for 5 minutes at 4° C. and the resulting supernatants containing the nuclear extracts were placed in new microcentrifuge tubes. Protein concentrations of samples were determined via Bradford assay.
HeLa cells were plated at 1 million cells per 100 mm dish and incubated for approximately 72 hours, resulting in serum-starved confluent plates. Plates were then washed with PBS and fresh media was added containing concentrations of compounds to be evaluated or niclosamide for 24 hours. For single concentrations of compounds, cells were treated with 1 μM of compounds, as derived from 24 hour MTT assay EC50 value for niclosamide. Dose-responses of niclosamide, compound 8, and compound 17 were similarly prepared at concentrations ranging from 2-0.0156 μM. Following incubation with compounds, cellular nuclear extracts were prepared.
Measurement of STAT3 binding to DNA was performed using the TransAM STAT3 ELISA kit. Sample wells contained 20 μg of nuclear extracts from treated HeLa cells diluted in 20 μL of Complete Lysis Buffer. The ELISA was then performed as described in the recombinant ELISA section. Data was normalized and reported as percent of control.

[5] = tested on: Leukemia Stem cells (LSCs); assay: Seahorse assay of oxygen consumption; format: cell-based; settings: four hours incubation
Experimental: (§1) Leukemia stem cells (LSCs) were incubated with compound 17 (STAT3i) for four hours. Seahorse assays were then used to measure oxygen consumption. […] Flow cytometry analysis verified that there was no cell death at the time of RNAseq analysis. FIG. 19 is a chart showing the expression changes of various genes involved in OXPHOS after incubation with compound 17. FIG. 20 is an image of western blot analysis of the expression of electron transport chain genes after incubating cells with compound 17.

[6] = tested on: Cord-blood derived CD34+ normal hematopoietic stem cells; assay: Colony formation of normal hematopoietic stem cells; format: cell-based
Experimental: (§2) Cord-blood derived CD34+ normal hematopoietic stem cells were treated with compound 17 (STAT3i).

[7] = tested on: Leukemia Stem cells (LSCs); assay: Leukemia stem cell viability (apoptosis markers, flow cytometry); format: cell-based; settings: 24 hours
Experimental: (§3) Leukemia Stem cells (LSCs) were incubated with compound 17 (STAT3i) for 24 hours and cell viability was measured. […] Primary human AML cells were treated with compound 17 (STAT3i). The cells were then cultured on methylcellulose and colony formation was measured. […] STAT3 was knocked down in primary human AML samples using shRNA methods (shSTAT3).

[8] = tested on: Leukemia Stem cells (LSCs); assay: RNAseq, qPCR and western blot expression analysis in LSCs; format: cell-based
Experimental: as §1
Leukemia stem cells (LSCs) were incubated with compound 17 (STAT3i) and RNAseq analysis was subsequently performed. […] Knockdown of Myc in LSCs using siRNA leads to a subsequent downregulation of the glutamine receptor SLC1A5 and a decrease in OXPHOS.

[9] = tested on: Cord-blood derived CD34+ normal hematopoietic stem cells; assay: Viability of normal hematopoietic stem cells; format: cell-based
Experimental: as §2

Primary AML cells = assay: Engraftment of treated primary AML cells transplanted into immunodeficient mice; format: in vivo; settings: then transplanted into immunodeficient mice
Experimental: Primary AML cells were treated with compound 17 (STAT3i) and transplanted into immunodeficient mice.

Primary AML samples = assay: Glutamine flux, ROS and western blot in primary AML samples; format: cell-based
Experimental: Primary AML samples were incubated with heavy labeled glutamine in flux experiments aimed at measuring TCA cycle metabolites. […] FIG. 22 is a graph showing that reactive oxygen species (ROS) is increased in AML cells that were treated with compound 17 (STAT3i).

Primary human AML cells = assay: Colony formation on methylcellulose; format: cell-based
Experimental: as §3

SH2 domain of STAT3 [10] = target: T1, SH2 domain of STAT3; settings: concentrations above 10 μM; cited from earlier work

T1 sequence (P40763 whole entry, the tested form may be a part): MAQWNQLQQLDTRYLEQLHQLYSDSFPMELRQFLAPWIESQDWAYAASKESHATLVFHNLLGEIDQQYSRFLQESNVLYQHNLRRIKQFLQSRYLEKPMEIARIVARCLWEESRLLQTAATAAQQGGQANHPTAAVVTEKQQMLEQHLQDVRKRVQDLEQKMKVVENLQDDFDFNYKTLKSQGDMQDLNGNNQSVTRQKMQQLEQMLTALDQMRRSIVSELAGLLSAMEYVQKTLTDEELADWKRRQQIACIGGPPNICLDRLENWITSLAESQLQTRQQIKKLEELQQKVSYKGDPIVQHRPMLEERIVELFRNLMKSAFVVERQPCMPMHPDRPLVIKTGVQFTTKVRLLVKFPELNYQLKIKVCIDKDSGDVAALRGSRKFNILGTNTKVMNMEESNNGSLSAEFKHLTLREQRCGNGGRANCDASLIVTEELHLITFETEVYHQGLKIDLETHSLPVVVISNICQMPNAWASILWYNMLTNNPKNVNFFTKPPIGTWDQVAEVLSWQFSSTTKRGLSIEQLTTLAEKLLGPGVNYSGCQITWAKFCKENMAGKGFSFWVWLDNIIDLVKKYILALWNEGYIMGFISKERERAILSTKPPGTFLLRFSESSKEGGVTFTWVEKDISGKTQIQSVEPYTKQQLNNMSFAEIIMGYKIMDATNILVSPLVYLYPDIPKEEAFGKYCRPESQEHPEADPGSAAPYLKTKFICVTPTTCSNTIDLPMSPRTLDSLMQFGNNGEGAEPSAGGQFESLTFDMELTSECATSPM
T3 sequence (P40763 whole entry): as the sequence (P40763 whole entry, the tested form may be a part) above
T2 sequence (P40763 whole entry): as the sequence (P40763 whole entry, the tested form may be a part) above

Molecule: O=C(Nc1ccc([N+](=O)[O-])cc1Br)c1cc(Br)ccc1O [Compound 2, 5-Bromo-N-(2-bromo-4-nitrophenyl)-2-hydroxybenzamide]
- affinity for the SH2 domain (SH2 domain of STAT3 [1]): slight affinity for the SH2 domain

Molecule: O=C(Nc1ccccc1Cl)c1cc(Cl)ccc1O [Compound 3, 5-Chloro-N-(2-chlorophenyl)-2-hydroxybenzamide]
- reduction of recombinant STAT3/DNA-binding relative to niclosamide [2]: performed worse than niclosamide
- mean value, % of STAT3 only control [2]: 80%

Molecule: O=C(Oc1ccc([N+](=O)[O-])cc1Cl)c1cc(Cl)ccc1O [Compound 4, 2-Chloro-4-nitrophenyl 5-chloro-2-hydroxybenzoate]
- reduction of recombinant STAT3/DNA-binding relative to niclosamide [2]: performed worse than niclosamide
- mean value, % of STAT3 only control [2]: 76%

Molecule: CN(C(=O)c1cc(Cl)ccc1O)c1ccc([N+](=O)[O-])cc1Cl [Compound 8, 5-Chloro-N-(2-chloro-4-nitrophenyl)-2-hydroxy-N-methylbenzamide]
- reduction of recombinant STAT3/DNA-binding relative to niclosamide [2]: means less than or equal to niclosamide
- induction of apoptosis (HeLa cells [3]; 10 μM): time-dependent increase in apoptosis
- EC50 (HeLa cells [4]): 1150 ± 380 nM
- reduction of STAT3/DNA-binding (STAT3): approx. 80%
- EC50 (STAT3): 239 ± 39 nM

Molecule: O=C(Nc1ccc([N+](=O)[O-])cc1Cl)c1cc([N+](=O)[O-])ccc1O [Compound 9, N-(2-Chloro-4-nitrophenyl)-2-hydroxy-5-nitrobenzamide]
- reduction of recombinant STAT3/DNA-binding relative to niclosamide [2]: means less than or equal to niclosamide

Molecule: Nc1ccc(NC(=O)c2cc(N)ccc2O)c(Cl)c1 [Compound 10, 5-Amino-N-(4-amino-2-chlorophenyl)-2-hydroxybenzamide]
- affinity for the SH2 domain (SH2 domain of STAT3 [1]): slight affinity for the SH2 domain

Molecule: O=C(Nc1ccc([N+](=O)[O-])cc1Cl)c1cc(Cl)c(-c2ccccc2)cc1O [Compound 14, 2-Chloro-N-(2-chloro-4-nitrophenyl)-5-hydroxy-[1,1′-biphenyl]-4-carboxamide]
- affinity for the SH2 domain (SH2 domain of STAT3 [1]): slight affinity for the SH2 domain

Molecule: O=C(Nc1ccc([N+](=O)[O-])cc1Cl)c1cc(Cl)c(-c2ccco2)cc1O [Compound 17, 5-Chloro-N-(2-chloro-4-nitrophenyl)-4-(furan-2-yl)-2-hydroxybenzamide]
- oxygen consumption [5]: decrease in oxygen consumption
- reduction of recombinant STAT3/DNA-binding relative to niclosamide [2]: means less than or equal to niclosamide
- colony formation of CD34+ normal hematopoietic stem cells [6]: not affected
- cell viability of LSCs [7]: significant cell death
- expression of OXPHOS and mitochondrial matrix genes [8]: decrease in the expression
- Myc expression ([8]; verified by qPCR and western blot): decreased
- induction of apoptosis (HeLa cells [3]; 1 μM): time-dependent increase in apoptosis
- viability of CD34+ normal hematopoietic stem cells [9]: not affected
- engraftment of primary AML cells (Primary AML cells): decreased engraftment
- reactive oxygen species (ROS) (Primary AML samples; AML cells): increased
- TCA cycle metabolites (Primary AML samples; heavy labeled glutamine flux): decrease in TCA cycle metabolites
- SLCA15 expression (Primary AML samples; western blot): downregulated
- total cell viability (HeLa cells [4]): did not drop below 50% until high concentrations
- EC50 (HeLa cells [4]): 315 ± 70 nM
- colony formation of primary human AML cells (Primary human AML cells): significant decrease in colony formation
- reduction of STAT3/DNA-binding (STAT3): approx. 80%
- EC50 (STAT3): 59 ± 11 nM

Molecule: O=C(Nc1ccc([N+](=O)[O-])cc1Cl)c1cc(Cl)ccc1Cl [Compound 18, 2,5-Dichloro-N-(2-chloro-4-nitrophenyl)benzamide]
- reduction of recombinant STAT3/DNA-binding relative to niclosamide [2]: means less than or equal to niclosamide

Molecule: O=C(Nc1ccc([N+](=O)[O-])cc1Cl)c1cc(Cl)ccc1O [niclosamide, reference compound]
- induction of apoptosis (HeLa cells [3]; 1 μM): only a slight increase in apoptosis
- induction of apoptosis (HeLa cells [3]; 10 μM): twice as much apoptosis
- EC50 (HeLa cells [4]): 1000 nM
- reduction of STAT3/DNA-binding (STAT3): approx. 80%
- EC50 (STAT3): 179 ± 28 nM

Molecule: S3I-1757 [Compound S3I-1757]
- inhibition of fluorescent peptide binding (SH2 domain of STAT3 [10]): complete inhibition
